From ChEMBL document CHEMBL3046890, “Synthesis and Herbicidal Activity of Sulfonylureas; SL-950 and Its Related Compounds” (1995) come the findings set out here.

Type in all cases: functional
One test relates to Chenopodium album. Put plainly: Post-emergence herbicidal activity against two-leaf stage Chenopodium album assessed as efficacy of weed growth control at 80 g ai/ha under greenhouse conditions.
Another test relates to Commelina communis. Put plainly: Post emergence herbicidal activity against two-leaf stage Commelina communis (Asiatic dayflower) assessed as efficacy of weed growth control at 40 g ai/ha under greenhouse conditions.
Test [1] relates to Echinochloa crus-galli. The test can be described thus: Post emergence herbicidal activity against three-leaf stage Echinochloa crus-galli (barnyard grass) assessed as efficacy of weed growth control at 750 g ai/ha under greenhouse conditions.
The subject of test [2] is Echinochloa crus-galli. The test can be described thus: Post emergence herbicidal activity against three-leaf stage Echinochloa crus-galli (barnyard grass) assessed as efficacy of weed growth control at 60 g ai/ha under greenhouse conditions.
Another test has as its system Capsella bursa-pastoris. Put plainly: Post-emergence herbicidal activity against four-leafstage Capsella bursa-pastoris assessed as efficacy of weed growth control at 40 g ai/ha under greenhouse conditions.
The subject of the next test is Cynodon dactylon. The test can be described thus: Post-emergence herbicidal activity against 15 cm leaf stage Cynodon dactylon assessed as efficacy of weed growth control at 60 g ai/ha under greenhouse conditions.
The next test has as its system Senna tora. The test can be described thus: Post-emergence herbicidal activity against one-leaf stage Senna tora assessed as efficacy of weed growth control at 80 g ai/ha under greenhouse conditions.
In the next test the test system is Elymus repens. The test can be described thus: Post-emergence herbicidal activity against three to four-leaf stage Elymus repens (couch grass) assessed as efficacy of weed growth control at 40 g ai/ha under greenhouse conditions.

Bounds are passed on as bounds.

As for `COc1cc(OC)nc(NC(=O)NS(=O)(=O)c2ncccc2C(=O)N(C)C)n1` [NICOSULFURON], the Efficacy is given as 95% in the test on Chenopodium album; 70% with Commelina communis; 50% in the test on Echinochloa crus-galli [1]; 95% in the test on Echinochloa crus-galli [2]; 70% with Capsella bursa-pastoris; under 50% in the test with Cynodon dactylon. In addition, the Efficacy in the test with Senna tora and with Elymus repens was 70% in each case.
